Experimental data taken from PMC9469649 (Bioorganic & medicinal chemistry letters, 2022).

What was measured:
[1] = target: Kv7.2 wild type (WT) channels (Homo sapiens, UniProt O43526); experiment: SyncroPatch 384PE automated whole cell patch-clamp, wild type Kv7.2; type: cell-based
[2] = target: Kv7.2/7.3 heterotetramers (Homo sapiens, UniProt O43525+O43526); experiment: Whole cell patch-clamp electrophysiology, transfected CHO cells, Kv7.2/7.3; type: cell-based
Kv7.3 over Kv7.2 = settings: cited from earlier work

Sequence of Kv7.2 wild type (WT) channels (O43526 whole entry): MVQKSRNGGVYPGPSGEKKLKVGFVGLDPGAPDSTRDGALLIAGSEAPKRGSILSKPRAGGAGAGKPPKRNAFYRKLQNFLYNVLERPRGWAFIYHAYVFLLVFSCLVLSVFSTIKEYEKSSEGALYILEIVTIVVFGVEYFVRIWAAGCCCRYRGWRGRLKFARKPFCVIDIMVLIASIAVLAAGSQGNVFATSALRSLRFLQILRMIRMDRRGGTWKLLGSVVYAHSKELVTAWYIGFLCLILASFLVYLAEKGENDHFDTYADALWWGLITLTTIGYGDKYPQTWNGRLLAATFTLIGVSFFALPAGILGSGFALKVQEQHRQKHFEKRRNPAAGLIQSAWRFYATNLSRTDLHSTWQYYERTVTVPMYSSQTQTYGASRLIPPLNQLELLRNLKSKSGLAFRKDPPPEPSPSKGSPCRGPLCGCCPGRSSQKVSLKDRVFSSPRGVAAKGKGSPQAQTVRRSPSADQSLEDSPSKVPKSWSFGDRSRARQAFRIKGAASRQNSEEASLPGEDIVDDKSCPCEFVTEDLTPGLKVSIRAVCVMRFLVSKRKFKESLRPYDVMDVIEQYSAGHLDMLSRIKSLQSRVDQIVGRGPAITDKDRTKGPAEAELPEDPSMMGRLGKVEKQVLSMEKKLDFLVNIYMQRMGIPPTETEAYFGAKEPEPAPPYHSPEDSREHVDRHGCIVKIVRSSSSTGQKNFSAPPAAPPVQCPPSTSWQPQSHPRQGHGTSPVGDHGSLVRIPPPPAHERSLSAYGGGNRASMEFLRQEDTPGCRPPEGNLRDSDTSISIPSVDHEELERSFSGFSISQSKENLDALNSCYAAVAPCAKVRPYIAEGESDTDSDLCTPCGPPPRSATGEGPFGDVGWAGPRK

Compound: CCOC(=O)Nc1cc(F)c2c(c1N)S(=O)(=O)CC(c1ccccc1)N2 (centres unmarked) [CH-02]
- Kv7.2 channel activity ([1]; SyncroPatch screen, 5 μM): completely inactive

Compound: [2H]c1cc(NC(=O)OCC)c(N)c(F)c1NCc1ccc(C(F)(F)F)cc1 [RL-25]
- activity on Kv7.2 relative to RL-71 (less active) ([1]; from EC50 values, Table 2): 20 fold
- potency on Kv7.2 relative to retigabine (more potent) ([1]; from EC50 values, Table 2): 4 fold

Compound: Nc1c(NC(=O)OC2CC2)ccc(NCc2ccc(C(F)(F)F)cc2)c1F [RL-56]
- EC50 [2]: ~20 nM

Compound: CCOC(=O)Nc1ccc(NCc2ccc(F)cc2)cc1N [Retigabine, retigabine]
- lower EC50 for Kv7.3 over Kv7.2 (Kv7.3 over Kv7.2): ca. 4 fold
